Experiment [1] concerns CCI model of neuropathic pain (mechanoallodynia) in mice. In words: Mouse CCI model of neuropathic pain. The class given is in vivo. As to conditions: 3 μmol/kg p.o.; for duration of action in vivo (in words) / reversal of mechanoallodynia at 1 h (in words): CCI mice; for reversal of mechanoallodynia at 1 h (in words): 1 h after drug treatment.
Experiment [2] has the same test system. Particulars: 3 μmol/kg p.o., ref Tosh et al.[8], cited from earlier work.
In the next experiment the target is T1, hA3AR (Homo sapiens, UniProt P0DMS8).
T1 sequence (P0DMS8 1-318): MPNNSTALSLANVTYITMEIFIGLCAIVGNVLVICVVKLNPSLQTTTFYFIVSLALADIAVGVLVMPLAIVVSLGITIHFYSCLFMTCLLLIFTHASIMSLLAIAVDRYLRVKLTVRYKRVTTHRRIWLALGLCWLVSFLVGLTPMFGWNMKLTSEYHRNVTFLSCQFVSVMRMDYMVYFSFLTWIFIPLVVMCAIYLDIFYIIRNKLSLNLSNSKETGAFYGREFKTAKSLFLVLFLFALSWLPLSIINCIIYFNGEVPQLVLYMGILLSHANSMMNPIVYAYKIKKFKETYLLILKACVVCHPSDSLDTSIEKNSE
Kind of experiment: Radioligand binding at hA3AR.

Values joined by “and” are separate entries in the source; they are usually repeats but may differ in a detail not shown here. Equal entries are not always repeated. Where two headings read alike, the source gives them in different places.

For the molecule `CNC(=O)[C@@]12C[C@@H]1[C@@H](n1cnc3c(NCCc4ccccc4)nc(-n4cc(-c5ccc(Cl)s5)nn4)nc31)[C@H](O)[C@@H]2O` [Compound 18], in experiment [1], the “duration of action in vivo (in words)” value is on record as “prolonged in activity”.
Turning to `CNC(=O)[C@@]12C[C@@H]1[C@@H](n1cnc3c(NC)nc(-n4cc(-c5ccc(Br)s5)nn4)nc31)[C@H](O)[C@@H]2O` [Compound 19], the “reversal of mechanoallodynia at 1 h (in words)” value (from here on “reversal of mechanoallodynia”) in experiment [1] is “nearly completely reversed”.
Turning to `CNC(=O)[C@@]12C[C@@H]1[C@@H](n1cnc3c(NC)nc(-n4cc(-c5cnn(C)c5)nn4)nc31)[C@H](O)[C@@H]2O` [Compound 11], in experiment [1], the “reversal of mechanoallodynia” value is reported as “nearly completely reversed”.
With `CNC(=O)[C@@]12C[C@@H]1[C@@H](n1cnc3c(NC)nc(C#Cc4ccc(Cl)s4)nc31)[C@H](O)[C@@H]2O` [Compound 2], in experiment [2], the “Effect at 3h (% ± SEM), pain protection” value is 83% and 82.8 ± 11.2%; the “Max. effect Emax (% ± SEM), reversal of reduction in PWT of ipsilateral hind paw” value is given as 93.3 ± 6.7%.
With `CNC(=O)[C@@]12C[C@@H]1[C@@H](n1cnc3c(NCc4cccc(Cl)c4)nc(-n4cc(-c5ccc(Cl)s5)nn4)nc31)[C@H](O)[C@@H]2O` [Compound 17], in experiment [1], the “duration of action in vivo (in words)” value is “nearly full protection up to 4 h”. Further, the “Effect at 3h (% ± SEM), pain protection” value in experiment [1] (day 7 after CCI, mice, 3 h after administration) is on record as greater than 90%.
On to `CCNc1nc(-n2cc(-c3ccc(Cl)s3)nn2)nc2c1ncn2[C@H]1[C@H](O)[C@H](O)[C@]2(C(=O)NC)C[C@H]12` [Compound 15], for which the “reversal of mechanoallodynia” value in experiment [1] was “nearly completely reversed”.
In the case of `CNC(=O)[C@@]12C[C@@H]1[C@@H](n1cnc3c(NC)nc(-n4cc(-c5ncccn5)nn4)nc31)[C@H](O)[C@@H]2O` [Compound 9], the “ligand efficiency with respect to A3AR affinity” value at hA3AR was determined as 0.27. The “reversal of mechanoallodynia” value in experiment [1] is reported as “nearly completely reversed”.
In the case of `CNC(=O)[C@@]12C[C@@H]1[C@@H](n1cnc3c(NCc4cccc(Cl)c4)nc(C#Cc4ccc(F)c(F)c4)nc31)[C@H](O)[C@@H]2O` [Compound 1], in experiment [2], the “Effect at 3h (% ± SEM), pain protection” value is 24% and 23.7 ± 10.8%; the “Max. effect Emax (% ± SEM), reversal of reduction in PWT of ipsilateral hind paw” value was 100 ± 0.0%.
Take `CNC(=O)[C@@]12C[C@@H]1[C@@H](n1cnc3c(NC4CCC4)nc(-n4cc(-c5ccc(Cl)s5)nn4)nc31)[C@H](O)[C@@H]2O` [Compound 16]: the “duration of action in vivo (in words)” value in experiment [1] is given as “prolonged in activity”.

Values taken from PMC4517612 (MedChemComm, 2015).
